Like-named read-outs stand apart in the source and are kept apart here.
How the values were obtained:
[1] = tested on: S. aureus JE2 (USA300); test: Antibacterial assay, MIC/MBC by broth microdilution (CLSI); assay type: cell-based; conditions: S. aureus JE2 (USA300); for MIC: repeated twice, a/b = both values
Procedure: (§1) Antibacterial assay. The minimum inhibitory concentrations (MICs) and the minimum bactericidal concentrations (MBCs) were determined by the broth microdilution method as described in the CLSI (The Clinical & Laboratory Standards Institute) guidelines (Performance standards for antimicrobial susceptibility testing: Clinical and Laboratory Standards Institute (CLSI), Twenty-Fifth informational supplement. Document M100-S25: […]; Vol. 35). All bacterial strains were cultured in cation-adjusted Muller Hinton broth (CAMHB) up to log-phase and then diluted to give a concentration of 7.5×10^5 CFU/mL. The gold complexes were dissolved in DMSO or water as stock solutions, which were then serially diluted two-fold in a 96-well plate. Aliquots (100 μL) of the dilutions were mixed with equal volumes of the bacterium suspension in a 96 well plate (in triplicates). The plates were incubated at 37° C. for 18 h without shaking. Negative and positive controls were included in the same well plate with wells having the culture medium only and bacteria solution only, respectively. The sample concentration that gave inhibition values above 90% were determined as MICs as calculated from absorbance values at 600 nm (OD600) obtained using a Tecan SPARK IOM plate reader. To determine minimum bactericidal concentrations (MBCs), agar plates were treated with 5 μL sample solutions from each well, and then incubated at 37° C. for 18 h without shaking. The sample concentration that gave no colony formed on agar plates were determined as MBCs.
(§2) Selection of bacteria. The ESKAPE pathogens were chosen as they are responsible for the majority of nosocomial infections and also as they provide a good scope of strains including both Gram-negative and Gram-positive species. A. baumannii NCTC 13420 was originally identified in 24 hospitals in the UK during 2000-2003, which produced OXA-51-like β-lactamases, and was highly resistant to ampicillin, piperacillin, piperacillin/tazobactam, ceftazidime, cefotaxime, gentamicin and ciprofloxacin. P. aeruginosa NCTC13437 produces VIM-10 metallo-carbapenemase and VEB-1 (Vietnamese extended-spectrum beta-lactamase). Wild-type strain E. cloacae NCTC 13405 (originally named E. cloacae 684) was isolated from patients at the London Hospital during 1982-1983. This strain has inducible AmpC β-lactamase and is resistant to ampicillin/amoxicillin and cefoxitin. K. pneumoniae ATCC 700603 was isolated from the urine of a hospitalized patient in Richmond, Va. in 1994, and it produces SHV-18 extended spectrum beta-lactamase (ESBL). JE2 (USA300) is a methicillin-resistant S. aureus (MRSA) strain, also resistant to beta-lactams, ciprofloxacin, tetracycline, macrolides (erythromycin), lincosamides (clindamycin), streptogramin B, and mupirocin. E. faecium ATCC 700221, a positive fecal VRE (vancomycin-resistant enterococcus) isolate, is resistant to several antibiotics including vancomycin and teicoplanin. The quality control strain, Gram-negative E. coli ATCC 25922, was included in all assays and validated with ciprofloxacin and […].

[2] = tested on: A. baumannii NCTC 13420; test: as above; assay type: cell-based; conditions: A. baumannii NCTC 13420; for MIC: repeated twice, a/b = both values
Procedure: as §1, §2

[3] = tested on: K. pneumoniae ATCC 700603; test: as above; assay type: cell-based; conditions: for MBC (in brackets) / MIC: K. pneumoniae ATCC 700603; for MIC: repeated twice, a/b = both values
Procedure: as §1, §2

[4] = tested on: P. aeruginosa NCTC 13437; test: as above; assay type: cell-based; conditions: P. aeruginosa NCTC 13437; for MIC: repeated twice, a/b = both values
Procedure: as §1, §2

[5] = tested on: E. coli ATCC 25922; test: as above; assay type: cell-based; conditions: for MIC: repeated twice, a/b = both values
Procedure: as §1, §2

[6] = tested on: E. faecalis ATCC 700221; test: as above; assay type: cell-based; conditions: for MIC: repeated twice, a/b = both values
Procedure: as §1, §2

[7] = tested on: E. cloacae NCTC 13405; test: as above; assay type: cell-based; conditions: E. cloacae NCTC 13405; for MIC: repeated twice, a/b = both values
Procedure: as §1, §2

[8] = Log P determination (n-octanol/water, FAAS)
Procedure: Log P Determination: Calibration curves. Milli-Q Water (150 mL) was added to n-octanol (150 mL), and the mixture was stirred for 3 days to allow both phases to reach saturation. The gold standard solution (1000 ppm Au in hydrochloric acid, Fisher Scientific) was diluted to 1, 2, 3, 4 and 5 ppm with n-octanol-saturated water, and the absorbance of the resulting solutions was measured by flame atomic absorption spectroscopy (FAAS, Agilent Technology 200 Series AA, equipped with a gold HC Lamp-Au coded). The absorbance data were plotted against Au concentration, and the resulting calibration curve was used for determining the concentration of the analogs in the aqueous phase.
To construct the standard calibration curve of the Au concentration in the n-octanol phase, compound 27 was used. The Au concentration in compound 27 was first calibrated against the aqueous gold standard. For this, 0.440 mg of compound 27 was weighed on a Sartorius MC5 microbalance, and then added to 22 mL of n-octanol-saturated water. […] For this, solutions of varying concentrations (0.99, 2.47, 4.94, 5.93, 9.88 ppm) of compound 27 in water-saturated n-octanol were prepared. The absorbance was measured by FAAS, and the data were plotted against the Au concentration to provide a second calibration curve, which was used for determining the Au concentration of the analogs in the n-octanol phase.
Determination of Au concentrations: Method 1. 0.5 to 1 mg of compound was weighed into a 2-mL Eppendorf tube containing 2 mL of n-octanol-saturated water. After shaking for about 4 h, the solution was centrifuged at 6000 rpm for 3 min. 1 mL of the supernatant was transferred to a new tube containing 1 mL of water-saturated n-octanol, and the mixture was shaken for 1 h. After centrifugation at 6000 rpm for 5 min, the two layers were collected and the gold concentration in each layer was determined by FAAS by comparing the absorbance to the first and second calibration curves.
Determination of Au concentrations: Method 2. […] For Method 2, 0.6 to 1 mg of compound was weighed into a 2-mL Eppendorf tube containing 1 mL of n-octanol-saturated water and 1 mL of water-saturated n-octanol. After shaking for 3-4 h, the mixture was centrifuged, and all liquid was transferred to a 15-mL tube. The liquid was then diluted with 2 mL of n-octanol-saturated saturated water and 2 mL of water-saturated n-octanol, and the mixture was shaken for another hour. After centrifugation at 6000 rpm for 5 min, the two layers were collected and the gold concentration in each layer was determined by FAAS by comparing the absorbance to the first and second calibration curves.
Log P was calculated as follows: log P=log[compound]oct/[compound]water

[9] = tested on: A549 cells; test: Cytotoxicity assay (resazurin); assay type: cell-based; conditions: 20 h, mean±S.E.M. from two independent experiments
Procedure: Sample preparation. The compounds were dissolved in DMSO at 12.8 mg/mL as the stock solutions, except for compounds 9-17, which were directly dissolved in the culture medium at 12.8 mg/mL. The stock solutions were diluted by the culture medium to the testing concentration at 128 μg/mL (compound 9-17 were diluted to 1,280 μg/mL). The solutions were then serially diluted two fold in a 96-well plate and were used in the cytotoxicity assay immediately.
Cell culture and cytotoxicity assay. A549 cells (ATCC CCL-185) were cultured in high glucose DMEM (Sigma-Aldrich, D6429) supplemented with 10% FBS, 1% penicillin-streptomycin solution (Sigma-Aldrich, P4333), 1% gentamicin solution (Sigma-Aldrich, G1272) and 1% amphotericin B solution (Sigma-Aldrich, A2942) at 37° C. in a humidified atmosphere containing 5% CO2. After cells reached 80%˜90% confluency, they were detached and counted using an Invitrogen Countess automated cell counter. Cells with viability over 90% were seeded at a density of 5×10^3 cells per well in 96-well cell culture plates. After overnight culture, the culture medium in each well removed with a pipet. 80 μL of the compound solutions from each well of the 96-well plate prepared above were transferred to this 96-well plate containing the cells, and the plates were incubated for 20 h. After addition of 8 μL of 110 μg/mL resazurin, the plates were incubated for further 3 h at 37° C. in 5% CO2. The fluorescence intensity was measured using a Tecan M200 Infinite Pro microplate reader at excitation 560 nm, emission 590 nm. IC50 were calculated by curve fitting the inhibition values vs. log(concentration) using GraphPad's Prism. The cytotoxicity assays (in triplicate) were repeated twice using freshly prepared cells and compound solutions.

[10] = tested on: C. neoformans ATCC 208821; test: Antifungal MIC; assay type: cell-based; conditions: C. neoforman, strain not named

Row | Compound | MBC (in brackets) [1] | MIC [1] | MBC (in brackets) [2] | MIC [2] | MBC (in brackets) [3] | MIC [3] | MBC (in brackets) [4] | MIC [4] | MIC [5] | MBC (in brackets) [6] | MIC [6] | MIC [7] | Log P ([8]; n-octanol/water, gold by FAAS) | IC50 against A549 cells [9] | MBC (in brackets) [5] | MBC (in brackets) [7] | further results
1 | (Tri-n-butylphosphine) gold chloride [Compound 30] | 4 μM/mL | 2 μM/mL | (147) μM/mL | 74/147 | 147 (147) μM/mL | 147 (147) μM/mL | 74 (74) μM/mL | 74 (74) μM/mL | >589 μM/mL | 5 (5) μM/mL | 5 (5) μM/mL | >589 μM/mL | >3.99 | 4.7 ± 0.0 µg/mL | – | – | –
2 | (Tris(4-trifluoromethylphenyl)phosphine) gold chloride [Compound 34] | 11 μM/mL | 3/1 | – | >366 μM/mL | – | >366 μM/mL | – | >366 μM/mL | >366 μM/mL | – | >366 μM/mL | >366 μM/mL | >3.94 | 85.6 ± 26.1 µg/mL | – | – | –
3 | (1-Thio-β-D-galatopyranosato)(triethylphosphine) gold(I) [Compound 10] | (0.1) μM/mL | 0.02 μM/mL | 31 (31) μM/mL | 31 (31) μM/mL | 251 (251) μM/mL | 251 (251) μM/mL | 251 (251) μM/mL | 251 (251) μM/mL | 16 (16) μM/mL | (0.5) μM/mL | – | 63 (63) μM/mL | – | 16.9 ± 0.5 µg/mL | 16 (16) μM/mL | 63 (63) μM/mL | Log P [8]: −0.73
4 | CC[P+](CC)(CC)[Au-]1[SH](CC2O[C@H](O[C@H]3OC(COC(C)=O)[C@@H](OC(C)=O)C(OC(C)=O)[C@H]3OC(C)=O)C(OC(C)=O)[C@@H](OC(C)=O)[C@@H]2OC(C)=O)[Au]1[PH](CC)(CC)CC (some centres unmarked) [Compound 7] | – | – | – | – | – | – | – | – | – | – | – | – | – | – | – | – | antifungal activity in words [10]: moderate antifungal activity; logP [8]: -0.28
5 | (Triethylphosphine) gold chloride [Compound 29] | 02 (0.2) μM/mL | – | 23 μM/mL | 11/23 | 46 (46) μM/mL | 46 (46) μM/mL | 183 μM/mL | 92 μM/mL | 23 (23) μM/mL | (0.7) μM/mL | – | 23 (23) μM/mL | 1.74 | 9.5 ± 0.1 µg/mL | 23 (23) μM/mL | 23 (23) μM/mL | –
6 | (4-Aminobenzenethiolato)(triethylphosphine) gold(I) [Compound 20] | 2 (0.07) μM/mL | – | 18 (18) μM/mL | 18 (18) μM/mL | 36 (36) μM/mL | 36 (36) μM/mL | 146 (146) μM/mL | 146 (146) μM/mL | 9 (9) μM/mL | (0.1) μM/mL | 0.02 μM/mL | 36 (36) μM/mL | – | 6.5 ± 1.1 µg/mL | 9 (9) μM/mL | 36 (36) μM/mL | MIC or MIC/MBC, fold lower than auranofin ([3]; K. pneumoniae): 10 fold; MIC/MBC ([3]; K. pneumoniae): 36 µM; Log P [8]: 1.36
7 | (Tris(4-methoxyphenyl)phosphine) gold chloride [Compound 32] | 3 μM/mL | 2 μM/mL | – | >438 μM/mL | – | >438 μM/mL | – | >438 μM/mL | >438 μM/mL | 3 (3) μM/mL | 3 (3) μM/mL | >438 μM/mL | >4.09 | 9.4 ± 1.7 µg/mL | – | – | –

— US20210198284A1, “GOLD COMPOSITIONS AND METHODS OF USE THEREOF” (THE UNIVERSITY OF MASSACHUSETTS, priority 2018, published 2021)
